For assay [1], the target named is T1, Coagulation factor X (Homo sapiens, UniProt P00742).
The target in assay [2] is Prothrombin (Homo sapiens, UniProt P00734). Kind of assay: In vitro inhibitory constant against human thrombin (FIIa).
Assay [3] deals with T2, Serine protease 1 (Homo sapiens, UniProt P07477).
Assay [4] deals with T2, Serine protease 1. The source holds these as a separate data set.
Assay [5] has as its target T1, Coagulation factor X. This is another data set of the same source.

SMILES strings stand for the structures. Where only a bound is given, the exact number is not on record here.

T2 sequence (P07477 whole entry): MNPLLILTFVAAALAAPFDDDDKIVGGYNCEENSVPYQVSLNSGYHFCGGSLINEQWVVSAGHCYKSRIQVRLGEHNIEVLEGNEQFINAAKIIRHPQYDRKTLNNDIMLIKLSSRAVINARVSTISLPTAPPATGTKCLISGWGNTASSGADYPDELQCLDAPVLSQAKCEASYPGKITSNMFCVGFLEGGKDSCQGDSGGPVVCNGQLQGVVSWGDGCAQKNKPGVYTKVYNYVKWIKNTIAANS
T1 sequence (P00742 41-179 limits assumed): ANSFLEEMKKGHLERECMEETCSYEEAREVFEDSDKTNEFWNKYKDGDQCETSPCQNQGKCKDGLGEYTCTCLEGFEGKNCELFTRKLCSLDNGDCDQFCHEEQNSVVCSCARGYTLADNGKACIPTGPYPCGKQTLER
T1 sequence (P00742 235-488 limits assumed): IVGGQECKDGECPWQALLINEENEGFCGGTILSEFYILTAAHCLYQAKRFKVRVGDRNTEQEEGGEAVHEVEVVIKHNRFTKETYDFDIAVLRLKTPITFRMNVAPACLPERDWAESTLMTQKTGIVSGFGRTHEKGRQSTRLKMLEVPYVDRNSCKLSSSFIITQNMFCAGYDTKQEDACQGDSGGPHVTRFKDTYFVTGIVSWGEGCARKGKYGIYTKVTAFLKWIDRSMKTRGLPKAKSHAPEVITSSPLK

By Ki is commonly meant the dissociation constant of the complex between target and ligand, obtained from inhibition or displacement. Low readings indicate a stronger hold on the target, high ones a looser hold on the target. In the case of `Cc1nc(N)ncc1CNC(=O)Cn1c(C)cnc(NCCc2ccc3c(c2)CCO3)c1=O`, the inhibition constant (Ki) result is “Not Active” in assay [1], 324 nM in assay [2] and “Not Active” in assay [3].

As to `Cc1cnc(NCCc2ccccc2)c(=O)n1CC(=O)NCc1cnc(N)cn1`, the inhibition constant (Ki) result in assay [1] and in assay [3] was “Not Active” each time.

On to `Cc1ccc(NS(=O)(=O)Cc2ccccc2)c(=O)n1CC(=O)NCc1nc(CN)cs1`, for which the inhibitory constant (Ki) in assay [2] is 136 nM; in assay [4], over 168 nM; in assay [5], over 338 nM.

Consider `Cc1nc(N)ncc1CNC(=O)Cn1c(C)cnc(NCCc2ccccc2)c1=O`, for which the inhibition constant (Ki) result in assay [1] was “Not Active”; in assay [2], 197 nM; in assay [3], “Not Active”.

On to `Cc1ccc(NS(=O)(=O)Cc2ccccc2)c(=O)n1CC(=O)NCc1cnc(N)cn1`, for which the inhibition constant Ki result in assay [1] is “Not Active”; in assay [2] it was 158 nM; in assay [3], “Not Active”.

Take `Cc1cnc(NCCc2ccccc2)c(=O)n1CC(=O)NCc1ccc(C(=N)N)cc1`: the inhibition constant (Ki) result is “Not Active” in assay [1] and 19.7 nM in assay [4].

Take `Cc1cnc(NCCc2ccccc2)c(=O)n1CC(=O)NCc1cnc(N)nc1`: the Ki result in assay [1] was “Not Active”; in assay [2] it was 357 nM; in assay [3] it was “Not Active”.

Take `COc1cccc(S(=O)(=O)Nc2cccn(CC(=O)NCc3ccc(C(=N)N)cc3)c2=O)c1`: the inhibitory constant (Ki) in assay [2] was found to be 5.3 nM; in assay [4], 18.7 nM; in assay [5], 153 nM.

As for `Cc1nc(N)ncc1CNC(=O)Cn1c(C)cnc(NCC(F)(F)c2ccccc2)c1=O`, the Ki entry in assay [1] is “Not Active”; in assay [2], 141 nM; in assay [3], “Not Active”.

Take `Cc1cnc(NCCc2ccccc2)c(=O)n1CC(=O)NC[C@@H]1CNC(N)=N[C@@H]1C`: the results for the inhibition constant Ki result in assay [1], in assay [2] and in assay [3] were “Not Active”, 3.2 nM and “Not Active”, respectively.

As to `Cc1ccc(NS(=O)(=O)Cc2ccccc2)c(=O)n1CC(=O)NCc1ccc(C(=N)N)c(F)c1`, the Ki entry is “Not Active” in assay [1], 3.6 nM in assay [2] and “Not Active” in assay [3].

Take `Cc1cnc(NCCc2ccccc2)c(=O)n1CC(=O)NCc1ccc(C(=N)NO)s1`: the values for the Ki result in assay [1], in assay [2] and in assay [3] were “Not Active”, 30.8 nM and “Not Active”, respectively.

As to `Cc1ccc(NS(=O)(=O)Cc2ccccc2)c(=O)n1CC(=O)NCc1ccc(C(=N)N)s1`, the Ki came to 0.1 nM in assay [2], 13.6 nM in assay [4] and 96.4 nM in assay [5].

`Cc1cnc(NCC2(c3ccc(Cl)cc3)CCC2)c(=O)n1CC(=O)NCc1cnc(N)cn1`: the Ki entry was “Not Active” in assay [1], 5.5 nM in assay [2] and “Not Active” in assay [3].

Consider `Cc1nc(N)ncc1CNC(=O)Cn1c(C)ccc(NS(=O)(=O)Cc2cccc3c2OCCO3)c1=O`, for which the inhibition constant Ki result in assay [1] and in assay [3] was “Not Active” throughout.

On to `Cc1nc(N)nc(C)c1CNC(=O)Cn1c(C)ccc(NS(=O)(=O)Cc2ccccc2)c1=O`, for which the Ki entry in assay [1] was “Not Active”; in assay [2], 281 nM; in assay [3] it was “Not Active”.

On to `Cc1ccc(NS(=O)(=O)Cc2ccccc2)c(=O)n1CC(=O)NCc1ccc(C(=N)N)cc1`, for which the Ki result in assay [1] is “Not Active”; in assay [2], 0.37 nM; in assay [4], 49.3 nM.

For `Cc1cnc(NCC(F)(F)c2ccc(F)cc2)c(=O)n1CC(=O)NCc1cnc(N)cn1`, the Ki entry is “Not Active” in assay [1], 5.9 nM in assay [2] and “Not Active” in assay [3].

Take `Cc1ccc(NS(=O)(=O)Cc2ccccc2)c(=O)n1CC(=O)NCc1cnc(N)nc1`: the inhibition constant (Ki) entry in assay [1] was “Not Active”; in assay [2], 462 nM; in assay [3] it was “Not Active”.

In the case of `COc1cccc(S(=O)(=O)Nc2cccn(CC(=O)NCc3nc(C(=N)N)cs3)c2=O)c1`, the Ki in assay [2] is 5.9 nM; in assay [4], over 168 nM; in assay [5] it was 179 nM.

Consider `Cc1ccc(NS(=O)(=O)Cc2ccccc2)c(=O)n1CC(=O)NCC1CN=C(N)NC1` (stereo unspecified), for which the Ki result in assay [1] is “Not Active”; in assay [2], 1 nM; in assay [3] it was “Not Active”.

`COC(=O)c1ccc(F)cc1CS(=O)(=O)Nc1ccc(C)n(CC(=O)N[C@H](CCCN=C(N)N)C(=O)O)c1=O`: the Ki in assay [2] stood at 0.1 nM; in assay [4], 16.6 nM; in assay [5], 1810 nM.

With `Cc1ccc(NS(=O)(=O)Cc2ccccc2)c(=O)n1CC(=O)NC[C@@H]1CNC(N)=N[C@@H]1C`, the Ki result in assay [1] is “Not Active”; in assay [2], 1.1 nM; in assay [3], “Not Active”.

For `Cc1cnc(NCCc2ccccc2)c(=O)n1CC(=O)NCc1ccc(C(=N)N)s1`, the Ki entry is “Not Active” in assay [1], 0.12 nM in assay [2] and 4.4 nM in assay [4].

Consider `COc1cccc(S(=O)(=O)Nc2cccn(CC(=O)NCc3ccc(C(=N)N)cc3F)c2=O)c1`, for which the values for the inhibition constant (Ki) in assay [2], in assay [4] and in assay [5] were 6 nM, 31.3 nM and 249 nM, respectively.

Take `Cc1cnc(NCC(F)(F)c2ccccc2)c(=O)n1CC(=O)NCc1cnc(N)cn1`: the Ki entry in assay [1] is “Not Active”; in assay [2], 9.8 nM; in assay [3], “Not Active”.

Turning to `COc1cccc(S(=O)(=O)Nc2cccn(CC(=O)NCc3ccc(C(=N)N)cc3Cl)c2=O)c1`, the inhibition constant Ki in assay [2] is 20.8 nM; in assay [4] it was 76.5 nM.

`Cc1nc(N)ncc1CNC(=O)Cn1c(C)ccc(NS(=O)(=O)Cc2ccccc2)c1=O`: the Ki result was “Not Active” in assay [1], 85.2 nM in assay [2] and “Not Active” in assay [3].

On to `COc1cccc(S(=O)(=O)Nc2cccn(CC(=O)NCc3ccc(C(=N)N)cc3OC)c2=O)c1`, for which the Ki in assay [2] was 1.6 nM; in assay [4] it was 11.9 nM; in assay [5] it was 76.8 nM.

As to `Cc1cnc(NCCc2ccccc2)c(=O)n1CC(=O)NCc1ccc(C(=N)NO[Si](C)(C)C(C)(C)C)s1`, the values for the inhibition constant Ki result in assay [1], in assay [2] and in assay [3] were “Not Active”, 13.2 nM and “Not Active”, respectively.

Turning to `Cc1cnc(NCCc2ccccc2)c(=O)n1CC(=O)NCC1CN=C(N)NC1` (stereo unspecified), the inhibition constant Ki result in assay [1] is “Not Active”; in assay [2], 1.9 nM; in assay [3] it was “Not Active”.

Consider `Cc1ccc(NS(=O)(=O)Cc2ccccc2F)c(=O)n1CC(=O)N[C@H](CCCNC(=N)N)C(=O)O` [CVS-2359], for which the inhibitory constant (Ki) in assay [2] was determined as 0.14 nM; in assay [4], 12.4 nM; in assay [5], 674 nM.

Regarding `Cc1nc(N)ccc1CNC(=O)Cn1c(C)ccc(NS(=O)(=O)Cc2ccccc2)c1=O` [L-374087], the results for the Ki in assay [2] and in assay [3] were 0.68 nM and “Not Active”, respectively.

Consider `Cc1nc(N)ccc1CNC(=O)Cn1c(C)cnc(NCCc2ccccc2)c1=O` [L-375378], for which the figures for the Ki in assay [2] and in assay [3] were 1 nM and “Not Active”, respectively.

Source of the values: ChEMBL document CHEMBL1136066, “Non-covalent thrombin inhibitors featuring P(3)-heterocycles with P(1)-monocyclic arginine surrogates” (Bioorg Med Chem Lett, 2002).
